Test results as given in article PMC8991960, “A Bivalent Activatable Fluorescent Probe for Screening and Intravital Imaging of Chemotherapy‐Induced Cancer Cell Death” (Angewandte Chemie (International Ed. in English), 2021).

Experiments:
8 cancer cell lines = experiment: Classification of drugs by Apotracker Red (apoptosis) and CellTrace Violet (proliferation) staining; type: cell-based; settings: 8 cell lines, 24 h treatment, single-dose screen
Experimental: To corroborate the versatility of Apotracker Red, we built a screening platform including a total of 8 cancer cell lines of variable origin and pathogenesis: breast (MCF7, MDA‐MB231 and MMTV‐PyMT (mouse mammary tumour virus‐polyoma middle tumour‐antigen)[23]), lung (A549), prostate (PC3 and LnCap), blood cells (Jurkat) and colon (HT29). All cell lines were cultured under standard conditions and seeded with the fluorescent proliferation marker CellTrace^TM Violet (CV) in 96‐well plates (10–20×10^3 cells/well) for high‐throughput flow cytometry. After drug treatment (i.e., drug addition plus 24 h incubation), Apotracker Red was incubated for 10 min and fluorescence readings were directly acquired without any additional processing steps (Figure 3 a). […] Using this platform, we tested a collection of FDA‐approved drugs in all cancer cell lines and compared their ability to induce apoptosis using Apotracker Red as the reporter. Specifically, we included DNA alkylation agents (e.g., cyclophosphamide, cisplatin, 5‐fluorouracil, gemcitabine, temozolomide), proteasomal and mitotic inhibitors (e.g., bortezomib, docetaxel, paclitaxel) and antagonists of specific proteins (e.g., dexamethasone, tamoxifen; Figure 3 b).
First, all drugs were tested in the 8 different cell lines to determine the percentages of Apotracker Red‐stained apoptotic cells compared to no treatment (Figure 3 c; Figure S8). […] All 5 drugs were tested at multiple concentrations (from 1 to 100 μM) and with incubation times up to 48 h to examine whether drugs could block cell proliferation at late stages (Figures S9–S13).
Figure S8. Heatmap of relative inhibition of cell proliferation (as indicated by staining of CellTraceTM Violet) after treatment of cancer cell lines with different drugs. Data presented as an average of 3 independent experiments. Cells were stained on day 0 with CellTraceTM Violet (1 µM) and mean fluorescence intensities were determined on the 5L LSR after 24 h of treatment with the different drugs.
(1 picture or pasted object on this page, not shown here) […]
Cell culture. MCF-7, A549, LnCap, MDA-MB-231, Jurkat T cells and PC3 cells were obtained from American Type Culture Collection (ATCC). HT29 cells were purchased from Merck (S i g m a Aldrich, UK). Mouse Mammary Tumour Virus –Polyoma Middle T antigen (MMTV -PyMT) cells were provided by the lab of Mikala Egeblad (CSHL, US). MMTV-PyMT, MCF-7, LnCap, MDA-MB-231 and Jurkat T cells were cultured in Roswell Park Memorial Institute (RPMI) 1640 Medium supplemented with 10% fetal bovine serum (FBS) , 100 U mL-1 penicillin and 0.1 mg mL-1 streptomycin. A549 and PC3 cells were cultured in Dublecco’s modified Eagle’s medium (DMEM) supplemented with 10% fetal bovine serum (FBS), 100 U mL-1 penicillin and 0.1 mg […]
Flow cytometry drug screen.

[1] = system: MMTV-PyMT mammary gland tumours; experiment: Intravital imaging of cisplatin-induced apoptosis in breast cancer model; type: in vivo, mouse; settings: cisplatin 10 mg kg-1 i.p., Apotracker Red 650 ng i.v. 72 h later, two-photon microscopy, MMTV-PyMT;ACTB-ECFP mice
Description: Optical intravital imaging is increasingly used for the preclinical evaluation of anticancer drugs in vivo. Although imaging modalities like computed tomography, positron emission tomography and magnetic resonance imaging can help to visualise whole intact organs in a non‐invasive manner,[26] they lack the spatiotemporal resolution needed to study dynamic interactions between individual tumour and stromal cells. This feature is critical to understand the mechanism of action of anticancer drugs and how they can affect interactions between cancer cells and immune cells in the tumour microenvironment.[27] Intravital imaging heavily relies on the acquisition of fluorescence signals using multiphoton microscopy, which provides cellular resolution with deep tissue penetration (≈500 μm) and minimal photodamage.[28] […] First, we analysed the chemical stability of Apotracker Red for in vivo studies by incubating the probe in mouse serum. […] When primary tumours measured around 0.5–1 cm in diameter, we administered cisplatin intraperitoneally (10 mg kg^−1). […]
were centrifuged (300 g, 5 min, r.t.), washed once with PBS before addition of 0.05% Trypsin, 0.02% ethylenediaminetetraacetic acid (EDTA) in Hank’s balanced salt solution (HBSS) and incubation at 37°C for 5 min. […] Histograms and mean fluorescence intensities of apoptotic cells were measured on a 5L LSR flow cytometer under the following […]

Structure (SMILES): N.N.[Cl][Pt][Cl] [cisplatin]
- Drug group by Apotracker Red (apoptosis) and CV (proliferation) staining (8 cancer cell lines): induced apoptosis and decreased cell proliferation
- Apotracker Red fluorescence in tumours of treated mice (intravital imaging) [1]: strong red fluorescent signals indicating cancer cell death induced by the drug
